Legend:
[1] = Learning speed, performing of conditional reflex and memory consolidation (overall); assay type: in vivo, rats and mice; details: conditional reflex, memory consolidation, versus pyracetam
Experimental: The compound according to the present invention was also tested for the effect produced thereby on processes of learning and memorizing.
The study of the compound according to the present invention for the speed of learning and performing the produced conditioned reflux was effected in experiments on rats using the method of electrodefensive conditioned reflexes of avoidance.
In experiments on mice the compound according to the present invention was tested for the effects produced thereby on processes of memory consolidation according to the results of investigation of the conditional response of passive avoidance.

mice [2] = test: Memory consolidation: conditioned reflex of passive avoidance in a two-chamber unit; assay type: in vivo, mice (nondescript male white)
Experimental: The study of the effect on processes of consolidation (fixation) of memory was carried out on 400 nondescript male white mice with a mass of 18-20 g using the procedure of a conditioned reflex of passive avoidance in a two-chamber unit, one of the chambers being darkened. In the bottom of the dark chamber an electrode floor is mounted, to which an electric current (50-60 V) can be applied.
Due to their biological specific features, mice prefer to stay in the dark chamber. At the end of the exposure lasting for 180 seconds of the residence of an animal in the dark chamber which, as a rule, actually takes place, an electric current is applied to the irritating device and a mouse is forced to leave its shelter.
Therefore, after a single-time training a conditioned reflex of passive avoidance is elaborated in mice. The resproduction of the effect which is evaluated by the laten period time (in seconds) of the visit to the dark chamber (or by the time of residence in the light chamber) was effected after 24 hours.
The compound according to the present invention and pyracetam were administered in doses of 200-250 mg/kg (pyracetam also in the dose of 1,000 mg/kg) intraperitoneally right after elaboration of the conditioned reflex.

mice [3] = test: Acute histotoxic hypoxia (sodium nitroprusside): lifespan of mice; assay type: in vivo
Experimental: The antihypoxic effect of the compound according to the present invention was studied in comparison with pyracetam on various experimental models of hypoxic states in experiments on mice and rats. The compound according to the present invention and pyracetam were administered intraperitoneally in the form of an aqueous emulsion prepared with Tween-80.
The studies were carried out using a model of an acute histotoxic hypoxia.
An acute histotoxic hypoxia was induced by way of a subcutaneous injection of sodium nitroprusside in the dose of 20 mg/kg. This mode of administration results in a 100% death of mice in 15-25 minutes after administration of the preparation. The lifespan of the mice was adjudicated after administration of sodium nitroprusside against the background of the test compounds (the compound according to the present invention and pyracetam) which was recorded by the arrest of breathing and heart. In this series of experiments 40 animals altogether were used.

[4] = Solubility and storage stability; assay type: physicochemical
mice [5] = test: Toxicity and general effect; assay type: in vivo
Experimental: The study of toxicity and a general effect of the compound according to the present invention was effected on mice with a mass of 18-20 g upon an intraperitoneal administration of the compound according to the present invention in doses of from 100 to 1.500 mg/kg.

rats' cerebral cortex = test: Acute repeating anoxia (asphyxial hypoxia): electrical activity of the cerebral cortex of rats; assay type: in vivo
Experimental: The studies were conducted on a model of an acute repeating anoxia.
The studies were carried out in experiments on rats with a mass of 180-200 g with nichrome electrodes in the brain (cerebral) cortex; after tracheostomy the animals were connected to the artificial-breathing apparatus. Anoxia was induced by repeatedly switching-off the breathing for 90, 120, 150 and 180 seconds with 10-minutes' intervals therebetween. Electrocardiogram and electrocorticogram were recorded. 53 rats altogether were used in the experiments. The antihypoxic activity of the compound according to the present invention in comparison with pyracetam was assessed by the following parameters:
I--time till the disappearance of a cortex electrical activity after discontinuation of oxygen supply;
II--time till the appearance of an electrocorticogram after renewal of breathing;
III--total time of electrical "silence" of the cortex
for each of the successive anoxiae.
The results of the experiments were statistically evaluated using Student's T-criterion.

[6] = prior art; cited from earlier work
[7] = 1st anoxia, 90 seconds, 250 mg/kg
[8] = 1st anoxia, 90 seconds, 1.000 mg/kg

NC(=S)CN1CCCC1=S [Compound of the present invention, 1-thiocarbamylmethylpyrrolidine-2-thione]
effective doses smaller than those of pyracetam [1]: 4-5 times | effective dose lower than that of pyracetam (mice [2]; 200 mg/kg versus pyracetam 1.000 mg/kg): 5 times | minimal effective dose (mice [2]; Mus musculus, ip, 24 h, read-out: effective dose (memory consolidation)): 200 mg/kg | duration of the latent period of the reflex of passive avoidance (mice [2]; ip, 200 mg/kg, 24 h): 136.2 ± 6.6 s | efficiency of the positive influence upon dose increasing (mice [2]; up to 500 mg/kg): does not grow | lifespan of mice at an acute histotoxic hypoxia (mice [3]; 250 mg/kg): 24.2 ± 2.46 min | lifespan of mice at an acute histotoxic hypoxia, % (control = 100%) (mice [3]; 250 mg/kg): 124.1 ± 12.6% | lifespan of mice at an acute histotoxic hypoxia (mice [3]; 500 mg/kg): 32.2 ± 4.95 min | lifespan of mice at an acute histotoxic hypoxia, % (control = 100%) (mice [3]; 500 mg/kg): 165.5 ± 25.4% | superiority to pyracetam in effectiveness (mice [3]; 500 mg/kg versus pyracetam 500 and 1,000 mg/kg): 1.5 times | solubility in N,N-dimethylformamide ([4]; N,N-dimethylformamide): soluble | solubility in ether, hexane ([4]; ether, hexane): insoluble | storage stability ([4]; storage): stable in storage | toxicity classification (mice [5]; based on LD50): low-toxic | dose with which suppression of a general state of the animals starts (mice [5]; mice, intraperitoneal): 250 mg/kg | Number of animals with retained electrocorticogram after the 1st anoxia (rats' cerebral cortex; 250 mg/kg): 44.0% | time of recovery of the functional capacity of the brain (rats' cerebral cortex; 250 mg/kg): considerably reduced | extension of the time till disappearance of an electrocorticogram (rats' cerebral cortex; 250 mg/kg, especially first and second anoxiae): ~2 times | I--time till the disappearance of a cortex electrical activity (rats' cerebral cortex; [7]): 84.3 ± 1.3 s | II--time till the appearance of an electrocorticogram after renewal of breathing (rats' cerebral cortex; [7]): 3.7 ± 1.5 s | III--total time of electrical "silence" of the cortex (rats' cerebral cortex; [7]): 8.9 ± 3.5 s | recovery of electrical activity of the brain after the 4th anoxia, effectiveness versus pyracetam (rats' cerebral cortex; versus pyracetam): 7 times | retention of the electrocorticogram after the first 90-seconds' anoxia, superiority to pyracetam (rats' cerebral cortex; versus pyracetam 1.000 mg/kg): 3 times

NC(=O)CN1CCCC1=O [Pyracetam, 1-carbamidomethylpyrrolidone-2, reference compound]
extension of the latent period of the conditioned reflex of passive avoidance (control = 100%) (mice [2]; 1.000 mg/kg): 33.7% | effect on the latent period of passive avoidance (mice [2]; doses lower than 1.000 mg/kg): inactive | effect of extension of the latent period of the reflex of passive avoidance (mice [2]; only in the dose of 1.000 mg/kg, pyracetam, 1,000 mg/kg): the same effect | stimulative effect on the mechanisms of memory consolidation and performance of conditioned reflexes [6]: absence of a pronounced stimulative effect | lifespan of mice at an acute histotoxic hypoxia (mice [3]; 1.000 mg/kg (= 1,000)): 20.97 ± 1.31 min | lifespan of mice at an acute histotoxic hypoxia, % (control = 100%) (mice [3]; 1.000 mg/kg (= 1,000)): 107.6 ± 6.7% | lifespan of mice at an acute histotoxic hypoxia (mice [3]; 250 mg/kg): inactive | lifespan of mice at an acute histotoxic hypoxia (mice [3]; 500 mg/kg): 17.98 ± 1.49 min | lifespan of mice at an acute histotoxic hypoxia, % (control = 100%) (mice [3]; 500 mg/kg): 92.2 ± 7.62% | Number of animals with recovered electrocorticogram after the 4th anoxia (rats' cerebral cortex; 1,000 mg/kg): 14.3% | Number of animals with retained electrocorticogram after the 1st anoxia (rats' cerebral cortex; 1,000 mg/kg): 12.5% | Number of animals with recovered electrocorticogram after the 4th anoxia (rats' cerebral cortex; 1,000 mg/kg, listed as pyracetam): 15% | I--time till the disappearance of a cortex electrical activity (rats' cerebral cortex; [8]): 76.7 ± 4.8 s | II--time till the appearance of an electrocorticogram after renewal of breathing (rats' cerebral cortex; [8]): 5.3 ± 0.2 s | III--total time of electrical "silence" of the cortex (rats' cerebral cortex; [8]): 17.8 ± 4.9 s | I--time till the disappearance of a cortex electrical activity (rats' cerebral cortex; 2nd anoxia (column 6; 120 seconds), 1.000 mg/kg): 85.8 ± 7.3 s | II--time till the appearance of an electrocorticogram after renewal of breathing (rats' cerebral cortex; 2nd anoxia (column 7; 120 seconds), 1.000 mg/kg): 21.8 ± 6.9 s | III--total time of electrical "silence" of the cortex (rats' cerebral cortex; 2nd anoxia (column 8; 120 seconds), 1.000 mg/kg): 53.3 ± 12.0 s | I--time till the disappearance of a cortex electrical activity (rats' cerebral cortex; 3rd anoxia (column 9; 150 seconds), 1.000 mg/kg): 95.0 ± 16.3 s | II--time till the appearance of an electrocorticogram after renewal of breathing (rats' cerebral cortex; 3rd anoxia (column 10; 150 seconds), 1.000 mg/kg): 67.6 ± 42.I | III--total time of electrical "silence" of the cortex (rats' cerebral cortex; 3rd anoxia (column 11; 150 seconds), 1.000 mg/kg): 131.2 ± 53.8 s | I--time till the disappearance of a cortex electrical activity (rats' cerebral cortex; 4th anoxia (column 12; 180 seconds), 1.000 mg/kg): 79.4 ± 23.8 s

From patent US4839380A, “1-Thiocarbamoylmethylpyrrolidine-2-thione, medical compositions of, and anti-hypoxic and nootropic use thereof” (priority 1988, dated 1989)
